This passage reports EC50 results from patent US20250228835A1, “PYRIDINYLOXYPYRIDINES AND RELATED COMPOUNDS AND THEIR USE IN TREATING MEDICAL CONDITIONS” (Rectify Pharmaceuticals, Inc., priority 2024, published 2025).

The target of test [1] is T1, ABCD2 WT (Homo sapiens, UniProt Q9UBJ2).
T1 construct: expressed in transfected cells
T1 sequence (Q9UBJ2 1-740): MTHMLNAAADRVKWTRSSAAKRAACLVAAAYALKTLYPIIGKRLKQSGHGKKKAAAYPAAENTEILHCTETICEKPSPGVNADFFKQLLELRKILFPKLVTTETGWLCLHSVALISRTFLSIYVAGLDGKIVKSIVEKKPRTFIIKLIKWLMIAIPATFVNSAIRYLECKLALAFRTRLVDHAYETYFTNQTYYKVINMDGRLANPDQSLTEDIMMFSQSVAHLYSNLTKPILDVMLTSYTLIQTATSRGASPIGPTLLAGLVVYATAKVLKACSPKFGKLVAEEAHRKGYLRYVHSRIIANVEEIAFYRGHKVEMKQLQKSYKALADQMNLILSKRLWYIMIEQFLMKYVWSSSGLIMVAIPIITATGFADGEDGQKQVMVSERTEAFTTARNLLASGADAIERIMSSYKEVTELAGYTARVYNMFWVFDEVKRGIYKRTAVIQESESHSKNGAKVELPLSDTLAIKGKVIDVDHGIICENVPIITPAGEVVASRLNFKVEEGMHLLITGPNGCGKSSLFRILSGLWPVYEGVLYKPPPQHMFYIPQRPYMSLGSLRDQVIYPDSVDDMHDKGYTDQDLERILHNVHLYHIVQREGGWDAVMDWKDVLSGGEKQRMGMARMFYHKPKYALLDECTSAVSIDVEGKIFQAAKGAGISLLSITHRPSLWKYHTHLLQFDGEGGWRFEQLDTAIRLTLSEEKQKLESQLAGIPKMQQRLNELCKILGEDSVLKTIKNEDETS
Kind of test: D2 correction dose-response assay: ABCD2 WT HiBit protein expression. Conditions: HEK-293/ABCD2 WT cells, 24 hours treatment, HiBit luminescence; class combines EC50 and Mean MaxAct (fold); read-out: ABCD2 WT EC50, Emax. Format: cell-based. The method, then: Exemplary compounds were evaluated in a D2 correction dose-response assay.
(§1) To assess activity against ABCD2, the compounds were screened in an assay measuring protein expression, using cells transfected with cDNA encoding HiBit-tagged ABCD2 wild-type. Here we describe an assay for measuring the expression of the wild type of human ABCD2 (henceforth referred to as ABCD2 WT) and the use of this assay to measure the efficacy of compounds to increase the expression of ABCD2 WT. The assay was designed to characterize the efficacy and potency of compounds to increase the expression of ABCD2 WT by calculating an Emax and EC50 value. HEK-293 cells stably expressing ABCD2 WT (HEK-293/ABCD2 WT) were used for this assay and were maintained at 37° C. (5% CO2, humidified) in Dulbecco's Modified Eagle Medium (DMEM, Gibco product #12100) supplemented with 10% fetal bovine serum (Biosera product #FB-1058/500), 1% PenStrep (HDB product #15140-122), and 0.5 mg/mL puromycin (Gibco product #A11138-03). For the assay, the HEK-293/ABCD2 WT cells were seeded in white/opaque 384-well plates (Corning product #3570) at 10,000 cells/well in 20 μl growth medium and allowed to settle for 4 hours at 37° C. (5% CO2, humidified). Compound serial dilutions are prepared in DMSO as three hundred times (333×) the final concentration and using a dilution factor of 3 using Bravo (Agilent). After the four-hour incubation period, 60 nL of DMSO solutions are transferred to the assay plate.
(§2) Dose response curves include eleven doses with the top final concentration at 30 μM in 0.3% DMSO. Liquid handling is performed with ECHO 550 Acoustic Liquid Handler (Labcyte). After addition of compound treatment, cells are incubated for 24 hours at 37° C. (5% CO2, humidified). After the 24-hour treatment, plates are allowed to equilibrate to room temperature for 10 minutes. Using Dragonfly Automated Liquid Handler (TTP LabTech), 20 μl of HiBit lytic assay reagent (Promega, product #N3040), which is prepared according to manufacturer's instructions, is added to each well. The plates are rotated at room temperature for 2 minutes and incubated for 1 hour at 25° C. before luminescent signal is acquired using an EnVision Multimode Plate Reader (PerkinElmer).

The target of test [2] is T2, ABCB4 WT (Homo sapiens, UniProt P21439).
T2 construct: expressed in transfected cells
T2 sequence (P21439 whole entry): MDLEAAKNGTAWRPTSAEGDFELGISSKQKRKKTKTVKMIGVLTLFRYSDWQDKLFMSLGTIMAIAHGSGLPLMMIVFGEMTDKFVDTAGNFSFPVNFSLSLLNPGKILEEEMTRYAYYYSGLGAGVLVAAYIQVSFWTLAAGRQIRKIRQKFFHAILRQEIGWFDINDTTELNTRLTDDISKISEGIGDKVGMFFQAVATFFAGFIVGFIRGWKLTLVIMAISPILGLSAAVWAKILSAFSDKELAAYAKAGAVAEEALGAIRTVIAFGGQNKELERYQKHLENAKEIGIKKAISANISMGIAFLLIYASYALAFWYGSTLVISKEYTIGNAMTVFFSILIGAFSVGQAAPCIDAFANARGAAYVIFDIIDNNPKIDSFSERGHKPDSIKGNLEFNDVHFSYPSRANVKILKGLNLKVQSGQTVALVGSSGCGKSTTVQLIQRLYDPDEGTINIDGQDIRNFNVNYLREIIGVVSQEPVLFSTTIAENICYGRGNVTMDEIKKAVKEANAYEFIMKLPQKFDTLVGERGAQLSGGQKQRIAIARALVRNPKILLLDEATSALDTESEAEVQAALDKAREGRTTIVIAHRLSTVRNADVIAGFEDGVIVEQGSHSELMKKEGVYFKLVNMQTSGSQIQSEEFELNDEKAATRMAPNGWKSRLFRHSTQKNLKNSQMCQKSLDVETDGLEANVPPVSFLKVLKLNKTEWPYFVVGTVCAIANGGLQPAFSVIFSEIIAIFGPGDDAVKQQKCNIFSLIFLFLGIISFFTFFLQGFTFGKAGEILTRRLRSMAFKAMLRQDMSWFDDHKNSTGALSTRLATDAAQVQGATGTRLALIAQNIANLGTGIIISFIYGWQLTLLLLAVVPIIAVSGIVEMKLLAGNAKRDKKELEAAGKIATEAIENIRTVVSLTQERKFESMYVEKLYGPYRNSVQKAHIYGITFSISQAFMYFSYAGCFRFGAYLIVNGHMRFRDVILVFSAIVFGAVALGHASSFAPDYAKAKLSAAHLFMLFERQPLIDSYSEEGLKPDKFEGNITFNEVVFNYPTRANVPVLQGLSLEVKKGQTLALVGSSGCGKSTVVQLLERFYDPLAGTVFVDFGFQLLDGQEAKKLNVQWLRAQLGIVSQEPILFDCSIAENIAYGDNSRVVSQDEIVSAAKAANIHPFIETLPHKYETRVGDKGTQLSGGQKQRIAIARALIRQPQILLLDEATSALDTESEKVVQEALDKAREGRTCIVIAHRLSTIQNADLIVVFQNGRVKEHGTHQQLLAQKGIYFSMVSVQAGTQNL
Nature of the test: ABCB4 WT assay: HiBit protein expression. The format is cell-based. Conditions: HEK-293 cells stably expressing HiBit-tagged ABCB4 WT; 24 h treatment; top concentration 30 μM; read-out: ABCB4 WT EC50, Emax.
From the text: To assess activity against ABCB4, compounds were screened in an assay measuring protein expression, using cells transfected with cDNA encoding HiBit-tagged ABCB4 wild-type.
as §1, with “Described here is” for “To assess activity against ABCD2, the compounds were screened in an assay measuring protein expression, using cells transfected with cDNA encoding HiBit-tagged ABCD2 wild-type. Here we describe”, “ABCB4” for “ABCD2”, “(HEK-293/ABCB4” for “(HEK-293/ABCD2”, “HEK-293/ABCB4” for “HEK-293/ABCD2”
as §2
Results are presented below in Table 5 for ABCB4 WT.

With `Cc1cc(C(F)F)nc(C2CC2)c1Oc1nc(-c2cncc(C#N)c2)ccc1N(C)S(C)(=O)=O` [Compound I-135], the EC50 in test [1] is 1000 to 10000 nM; in test [2], less than 1 µM.

For `Cc1cc(C)c(Oc2nc(-c3cncc(Cl)c3)ccc2S(=O)(=O)N2CCCC2)c(C)c1` [Compound I-96], the results for the 50% effective concentration (EC50) in test [1] and in test [2] were 1000 to 10000 nM and 1 to 10 µM, respectively.

Consider `CNS(=O)(=O)c1ccc(-c2cncc(Cl)c2)nc1Oc1c(C)cc(C)cc1C` [Compound I-95], for which the concentration for a half-maximal effect (EC50) is less than 1000 nM in test [1] and less than 1 µM in test [2].

Turning to `Cc1cc(C)c(Oc2nc(-c3cncc(C#N)c3)ncc2NS(C)(=O)=O)c(C)c1` [Compound I-10], the EC50 in test [1] is less than 1000 nM; in test [2], no less than 25 µM.

`Cc1nc(C(F)F)nc(C2CC2)c1Oc1nc(-c2cncc(C#N)c2)ccc1NS(C)(=O)=O` [Compound I-144]: the EC50 is greater than 25000 nM in test [1] and less than 1 µM in test [2].

Take `Cc1cc(C)c(Oc2nc(-c3ccc(C#N)nc3C)ccc2NS(C)(=O)=O)c(C)c1` [Compound I-6]: the EC50 in test [1] is less than 1000 nM; in test [2] it was no less than 25 µM.

For the compound `CS(=O)(=O)Nc1ccc(-c2cncc(C#N)c2)nc1Oc1c(C2CC2)nc(C(F)(F)F)nc1C1CC1` [Compound I-138], the EC50 in test [1] was less than 1000 nM; in test [2], less than 1 µM.

`Cc1cc(C(F)F)nc(C2CC2)c1Oc1nc(-c2cncc(C#N)c2)ccc1NS(C)(=O)=O` [Compound I-137]: the EC50 in test [1] is less than 1000 nM; in test [2] it was less than 1 µM.

With `Cc1cc(C(F)(F)F)nc(C2CC2)c1Oc1nc(-c2cncc(C#N)c2)ccc1N=S(C)(C)=O` [Compound I-286], the EC50 in test [1] is less than 1000 nM; in test [2], no less than 25 µM.

For `Cc1cc(C(F)F)nc(C2CC2)c1Oc1nc(-c2cncc(C#N)c2)ccc1S(=O)(=O)NC1CC1` [Compound I-288], the EC50 in test [1] lay in the range of 1000 to 10000 nM; in test [2] it was 1 to 10 µM.

On to `Cc1cc(C(F)(F)F)nc(C2CC2)c1Oc1nc(-c2cncc(C#N)c2)ccc1S(=O)(=O)NC1COC1` [Compound I-305], for which the results for the half-maximal effective concentration (EC50) in test [1] and in test [2] were 1000 to 10000 nM and no less than 25 µM, respectively.

`Cc1cc(C)c(Oc2nc(-c3cccc(Cl)c3)ccc2S(N)(=O)=O)c(C)c1` [Compound I-102]: the EC50 is greater than 25000 nM in test [1] and no less than 25 µM in test [2].

As for `Cc1cc(C(F)(F)F)nc(C2CC2)c1Oc1nc(-c2cncc(C#N)c2)ccc1S(=O)(=O)NC1CCOCC1` [Compound I-306], the figures for the EC50 in test [1] and in test [2] were 1000 to 10000 nM and no less than 25 µM, respectively.

On to `Cc1nc(C2COC2)nc(C2CC2)c1Oc1nc(-c2cncc(C#N)c2)ccc1NS(C)(=O)=O` [Compound I-143], for which the figures for the EC50 in test [1] and in test [2] were less than 1000 nM and less than 1 µM, respectively.

Regarding `Cc1cc(C(F)(F)F)nc(C2CC2)c1Oc1nc(-c2cncc(C#N)c2)ccc1S(=N)(=O)C1CCOCC1` (stereo not shown) [Compound I-301], the EC50 in test [1] is 10000 to 25000 nM; in test [2], no less than 25 µM.

For `Cc1nc(Oc2nc(-c3cncc(C#N)c3)ccc2NS(C)(=O)=O)c(C2CC2)s1` [Compound I-300], the EC50 is less than 1000 nM in test [1] and less than 1 µM in test [2].

Take `Cc1cc(C)[n+]([O-])c(C)c1Oc1nc(-c2cncc(C#N)c2)ccc1NS(C)(=O)=O` [Compound I-311]: the results for the EC50 in test [1] and in test [2] were 1000 to 10000 nM and 1 to 10 µM, respectively.

In the case of `Cc1cc(C(F)(F)F)nc(C2CC2)c1Oc1nc(-c2cncc(C#N)c2)ccc1NS(=O)(=O)C1CC1` [Compound I-140], the EC50 in test [1] was less than 1000 nM; in test [2], less than 1 µM.

Turning to `CCS(=O)(=O)Nc1ccc(-c2cncc(C#N)c2)nc1Oc1c(C)cc(C(F)(F)F)nc1C1CC1` [Compound I-152], the EC50 was less than 1000 nM in test [1] and less than 1 µM in test [2].

Turning to `Cc1cc(C(F)(F)F)nc(C2CC2)c1Oc1nc(-c2cncc(C#N)c2)ccc1S(=N)(=O)c1cccnc1` (stereo not shown) [Compound I-304], the results for the EC50 in test [1] and in test [2] were less than 1000 nM and 1 to 10 µM, respectively.

In the case of `Cc1nc(C(F)(F)F)nc(C2CC2)c1Oc1nc(-c2cncc(C#N)c2)ccc1S(=N)(=O)C1CC1` (stereo not shown) [Compound I-303], the half-maximal effective concentration (EC50) was greater than 25000 nM in test [1] and no less than 25 µM in test [2].

For `Cc1cc(C)c(Oc2nc(-c3cccc(C#N)c3)ccc2S(=N)(=O)C2CC2)c(C)n1` (stereo not shown) [Compound I-316], the values for the EC50 in test [1] and in test [2] were 10000 to 25000 nM and 1 to 10 µM, respectively.

With `CNS(=O)(=O)c1ccc(-c2cncc(C#N)c2)nc1Oc1c(C)nc(C(F)F)nc1C1CC1` [Compound I-313], the concentration giving a half-maximal response (EC50) in test [1] was greater than 25000 nM; in test [2] it was 1 to 10 µM.

In the case of `Cc1cc(C(F)(F)F)nc(C2CC2)c1Oc1nc(-c2cncc(C#N)c2)ccc1S(=N)(=O)C1CC1` (stereo not shown) [Compound I-287], the concentration for a half-maximal effect (EC50) is greater than 25000 nM in test [1] and less than 25 µM in test [2].

Consider `Cc1nc(C(F)(F)F)cc(C2CC2)c1Oc1nc(-c2cncc(C#N)c2)ccc1N(C)S(C)(=O)=O` [Compound I-154], for which the EC50 in test [1] is greater than 25000 nM; in test [2], less than 25 µM.

Consider `Cc1cc(C)c(Oc2nc(-c3cncc(Cl)c3)ccc2S(=O)(=O)NC(C)(C)C)c(C)c1` [Compound I-99], for which the values for the EC50 in test [1] and in test [2] were greater than 25000 nM and no less than 25 µM, respectively.

Regarding `Cc1cc(C(F)(F)F)nc(C2CC2)c1Oc1nc(-c2cncc(C#N)c2)ccc1S(=N)(=O)c1cnccn1` (stereo not shown) [Compound I-297], the EC50 fell in the range of 1000 to 10000 nM in test [1] and 1 to 10 µM in test [2].

Turning to `Cc1nc(C(F)(F)F)nc(C2CC2)c1Oc1nc(-c2cncc(C#N)c2)ccc1S(=O)(=O)NC1CC1` [Compound I-292], the EC50 in test [1] fell in the range of 1000 to 10000 nM; in test [2], 1 to 10 µM.

Regarding `Cc1cc(C)c(Oc2nc(-c3cccc(Cl)c3)ccc2S(=O)(=O)NC2CCOC2)c(C)c1` (stereo not shown) [Compound I-101], the EC50 in test [1] was 1000 to 10000 nM; in test [2], no less than 25 µM.

Turning to `Cc1cc(C2CC2)nc(C)c1Oc1nc(-c2cncc(C#N)c2)ccc1NS(C)(=O)=O` [Compound I-4], the EC50 is less than 1000 nM in test [1] and less than 1 µM in test [2].

With `Cc1nc(C(F)(F)F)nc(C2CC2)c1Oc1nc(-c2cncc(C#N)c2)ccc1S(=O)(=O)Nc1cccnc1` [Compound I-310], the figures for the concentration for a half-maximal effect (EC50) in test [1] and in test [2] were 1000 to 10000 nM and no less than 25 µM, respectively.

For `Cc1cc(C(F)(F)F)nc(C2CC2)c1Oc1nc(-c2cncc(C#N)c2)ccc1S(=O)(=O)N(C)C` [Compound I-291], the EC50 was 1000 to 10000 nM in test [1] and less than 1 µM in test [2].
